Laboratory results reported in patent publication US11230711B2, “Inhibition of LET7I as a means to enhance the protective effect of progesterone against stroke” (UNIVERSITY OF NORTH TEXAS HEALTH SCIENCE CENTER, priority 2017, dated 2022).

Legend:
[1] = tested on: C57BL/6J mice; assay: Ischemic lesion / infarct size by TTC staining after middle cerebral artery occlusion (MCAo); type: in vivo, mouse
From the text: Mice will receive bilateral ovariectomy (OVX) using a dorsal approach under isoflurane anesthesia. A small cut is made through skin and abdominal muscles in left and right lateral abdomen. The arteries to left and right ovaries will be ligated, and ovaries will be cut. The muscles and skin will be sutured with 4-0 Vicryl absorbable suture.
Fused steroid pellets will be made using the flash-melt method described by Ratka and Simpkins. The pellets (containing P4 or control) will be implanted subcutaneously into abdominal area.
MCAo will be used to induce transient focal cerebral ischemia (as previously described). Briefly, under isoflurane anesthesia, a mid line incision will be made on the neck. Common carotid artery (CCA), external carotid artery (ECA) and internal carotid artery (ICA) will be dissected from the connective tissue. A silicon coated 6-0 nylon monofilament will be inserted into the left ECA and advanced till it occludes the origin of MCA. The MCA will be occluded for 60 minutes and then reperfusion attained by withdrawing the suture.
ICV injections will be performed as described by Sananbenesi et al.. In brief, mice will be anaesthetized and affixed with a cannula ipsilateral to the side of surgery (coordinates from Bregma: AP1/4_0.4 mm, L1/4_1.15 mm, V1/4_2.0 mm). […]

[2] = tested on: primary cortical astrocytes; conditions: 10 nM P4; reported in reference (10); cited from earlier work

SMILES: CC(=O)[C@H]1CC[C@H]2[C@@H]3CCC4=CC(=O)CC[C@]4(C)[C@H]3CC[C@]12C [P4, progesterone]
- stroke-induced lesion size (ischemic injury), TTC stain ([1]; Example 1, MCAo mice, P4 pellet, ICV Let-7i antagomir, FIG. 6): no statistically significant effect
- relative infarct size (ischemic injury), TTC staining ([1]; Example 2, 24 h after MCAo, vs cholesterol+scrambled, FIG. 12B): did not
- release of BDNF from astrocytes [2]: maximal release of BDNF
